# Reference: PubChem BioAssay AID743432 (The Scripps Research Institute Molecular Screening Center, 2014)
# Calls of active or inactive are those of the source. The rule behind the calls is not given here.
# Molecular target: Sphingosine 1-phosphate receptor 4 (Homo sapiens) (UniProt O95977)
# Assay: antagonism at human S1PR4 – cell-based, FRET, dose response, selectivity assay for S1PR3 antagonist project, late-stage follow-up (AID 743432)
# Conditions: S1P4 cell line
# Sphingosine 1-phosphate receptor 4 (Homo sapiens), sequence (O95977 whole entry, looked up): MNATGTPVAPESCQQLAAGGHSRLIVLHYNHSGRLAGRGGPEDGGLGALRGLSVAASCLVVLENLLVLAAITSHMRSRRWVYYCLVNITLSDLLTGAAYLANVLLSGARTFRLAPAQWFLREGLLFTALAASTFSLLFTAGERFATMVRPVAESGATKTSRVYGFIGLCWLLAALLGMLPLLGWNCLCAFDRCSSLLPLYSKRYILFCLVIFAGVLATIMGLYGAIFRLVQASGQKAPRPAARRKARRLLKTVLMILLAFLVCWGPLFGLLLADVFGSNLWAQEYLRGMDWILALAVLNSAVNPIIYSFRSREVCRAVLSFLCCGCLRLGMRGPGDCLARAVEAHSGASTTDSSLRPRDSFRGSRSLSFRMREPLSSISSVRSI
row,IC50,SMILES
1,> 50 µM (inactive),O=C(NC(c1ccc(Cl)c(Cl)c1)c1nc(-c2ccccc2)no1)c1ccccc1 (stereo not given)
2,> 50 µM (inactive),O=C(NC(c1ccc(Cl)cc1)c1nc(-c2ccccc2)no1)c1ccc(Cl)c(Cl)c1 (stereo not given)
3,3.1 µM,N#Cc1ccc(C(=O)NC(c2ccc(Cl)c(Cl)c2)c2nc(-c3ccccc3)no2)cc1 (stereo not given)
4,> 50 µM (inactive),O=C(NC(c1ccc(Cl)cc1)c1nc(-c2ccccc2)no1)c1ccc(Cl)c(Br)c1 (stereo not given)
5,> 50 µM (inactive),O=C(NC(c1ccc(Br)cc1)c1nc(-c2ccccc2)no1)c1ccc(Cl)c(Cl)c1 (stereo not given)
6,> 50 µM (inactive),O=C(NC(c1ccc(Cl)c(Cl)c1)c1nc(-c2ccccc2)no1)c1ccc(Cl)c(Cl)c1 (stereo not given)
7,5.2 µM,O=C(NC(c1cccc(Cl)c1)c1nc(-c2ccccc2)no1)c1cccc(Cl)c1 (stereo not given)
8,> 50 µM (inactive),Cc1ccc(C(NC(=O)c2cccc(Cl)c2)c2nc(-c3ccccc3)no2)cc1 (stereo not given)
9,> 50 µM (inactive),O=C(NC(c1cccc(Cl)c1)c1nc(-c2ccccc2)no1)c1cc(Cl)cc(Cl)c1 (stereo not given)
10,> 50 µM (inactive),O=C(NC(c1cccc(Cl)c1)c1nc(-c2ccccc2)no1)c1ccc(Cl)c(Cl)c1 (stereo not given)
11,> 50 µM (inactive),O=C(NC(c1ccccc1)c1nc(-c2ccccc2)no1)c1cccc(Cl)c1 (stereo not given)
12,> 50 µM (inactive),O=C(NC(c1nc(-c2ccccc2)no1)C1CCCCC1)c1ccc(Cl)c(Cl)c1 (stereo not given)

# More lines, now with the values behind:
row,SMILES,IC50
1,COc1ccc(C(=O)NC(c2ccccc2)c2nc(-c3ccccc3)no2)cc1 (stereo not given),> 50 µM (inactive)
2,O=C(NC(c1ccc(Cl)cc1)c1nc(-c2ccccn2)no1)c1cccc(Cl)c1 (stereo not given),> 50 µM (inactive)
3,CCc1ccc(C(NC(=O)c2cccc(Cl)c2)c2nc(-c3ccccc3)no2)cc1 (stereo not given),> 50 µM (inactive)
4,O=C(c1cccc(Cl)c1)N(CCO)C(c1ccc(Cl)c(Cl)c1)c1nc(-c2ccccc2)no1 (stereo not given),inactive
5,O=C(NC(c1ccccc1)c1nc(-c2ccccc2)no1)c1cccc(Br)c1 (stereo not given),> 50 µM (inactive)
6,O=C(NC(c1ccccc1)c1nc(-c2ccccc2)no1)c1cccc(Cl)n1 (stereo not given),> 50 µM (inactive)
7,Cc1ccc(C(=O)NC(c2ccccc2)c2nc(-c3ccccc3)no2)cc1 (stereo not given),> 50 µM (inactive)
8,O=C(NC(c1ccc(Cl)cc1)c1nc(-c2cccc(Cl)c2)no1)c1cccc(Cl)c1 (stereo not given),> 50 µM (inactive)
